Experimental data reported in patent US20220274947A1, “NOVEL HETEROARYL-TRIAZOLE COMPOUNDS AS PESTICIDES” (Bayer Aktiengesellschaft, priority 2019, published 2022).

How the values were obtained:
Format in all cases: in vivo
Rhipicephalus microplus [1] = assay: Rhipicephalus (Boophilus) microplus injection test (BOOPMI Inj); settings: 168 h, injection into adult engorged female ticks, egg deposition after 7 days, read-out: activity (efficacy: 100% means all eggs are infertile); for pest or weed control at 0.004 mg: application rate 4 μg/tick; for pest or weed control at 0.02 mg: application rate 20 μg/tick
Method in brief: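 Five engorged adult female R. microplus ticks injected into the abdomen with 1 μL of compound diluted in DMSO, then kept in a climate chamber. Fertile egg deposition checked after 7 days; eggs without visible fertility held until hatching at about 42 days. Efficacy: 100% = all eggs infertile, 0% = all fertile.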

Rhipicephalus microplus [2] = assay: Rhipicephalus (Boophilus) microplus in-vitro contact test, larval cattle tick, strain Parkhurst (BOOPMI Cont); settings: application rate 5 μg/cm^2 (=500 g/ha), tick larvae, after 48 hours, read-out: activity (efficacy: 100% means all larvae are dead or moribund)
Method in brief: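 Acetone solutions dried onto glass tube walls (900 ppm giving 5 μg/cm^2); 20-50 pyrethroid-resistant Parkhurst larvae added per tube and held 48 h at 27° C., 85% relative humidity. Efficacy scored by negative geotaxis as % dead or moribund larvae.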

Ctenocephalides felis [3] = assay: Ctenocephalides felis oral test (CTECFE Oral); settings: 48 h, read-out: activity (mortality)
Procedure: Ctenocephalides felis—Oral Test (CTECFE Oral) Solvent: dimethyl sulfoxide
To produce a suitable preparation of active compound, 10 mg of active compound are dissolved in 0.5 mL solvent, and the concentrate is diluted with cattle blood to the desired concentration.
Approximately 20 adult unfed cat fleas (Ctenocephalides felis) are placed in flea chambers. The blood chamber, sealed with parafilm on the bottom, are filled with cattle blood supplied with compound solution and placed on the gauze covered top of the flea chamber, so that the fleas are able to suck the blood. The blood chamber is heated to 37° C. whereas the flea chamber is kept at room temperature.
After 2 days mortality in % is determined. 100% means all the fleas have been killed; 0% means none of the fleas have been killed.

Diabrotica balteata = Diabrotica balteata spray test; settings: 168 h, wheat seeds, larvae, after 7 days, read-out: activity (efficacy: 100% means all seedlings have grown up like in the untreated, uninfected control); for pest or weed control at 32 µg/disc, 100 g/ha: application rate 100 g/ha (=32 μg/well); for pest or weed control at 160 µg/disc, 500 g/ha: application rate 500 g/ha (=160 μg/well)
Method in brief: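 Wheat seedlings, germinated 1 day on agar, were sprayed with compound in acetone/DMF diluted in water containing emulsifier, then infested with 10-20 Diabrotica balteata larvae. After 7 days efficacy in % was scored: 100% means seedlings grew like the untreated, uninfected control; 0% means none grew.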

Myzus persicae = Myzus persicae oral test; settings: 120 h, read-out: activity (mortality)
Procedure: Myzus persicae—Oral Test Solvent: 100 parts by weight acetone
To produce a suitable preparation of active compound, 1 part by weight of active compound is mixed with the stated amount of solvent, and the concentrate is diluted with water to the desired concentration.
50 μL compound solution is filled in microtiter plates and 150 μL IPL41 insect medium (33%+15% sugar) is added to obtain a total volume of 200 μL per well. Afterwards the plates are sealed with parafilm through which a mixed population of the green peach aphid (Myzus persicae) can suck on the compound preparation.
After 5 days mortality in % is determined. 100% means all aphids have been killed and 0% means none of the aphids have been killed.

Spodoptera frugiperda = Spodoptera frugiperda spray test; settings: in Zea mays, 168 h, read-out: activity (mortality)
Method in brief: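 Maize leaf sections were sprayed with compound formulated in acetone/DMF and diluted in water containing 1000 ppm emulsifier. Dried leaves were infested with fall armyworm larvae, and percent mortality was scored after 7 days.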

[4] = system: Aedes aegypti strain MONHEIM; assay: Aedes aegypti test (AEDSAE surface treatment & contact assay); settings: exposure 30 minutes, 24 hours after contact, read-out: efficacy (mortality); for mortality at 4 mg/m2: surface concentration 4 mg/m^2, glazed tile; for mortality at 20 mg/m2: surface concentration 20 mg/m^2, glazed tile
Method in brief: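 Compound dissolved in acetone (2 mg/ml) with 2000 ppm rapeseed oil methyl ester, pipetted onto glazed tile and dried. Adult mosquitoes exposed on the surface for 30 min; percent mortality scored 24 h after contact.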

[5] = system: Musca domestica strain WHO—N; assay: Musca domestica test (MUSCDO surface treatment & contact assay); settings: exposure 30 minutes, 24 hours after contact, read-out: efficacy (mortality); for mortality at 20 mg/m2: surface concentration 20 mg/m^2, glazed tile; for mortality at 4 mg/m2: surface concentration 4 mg/m^2, glazed tile
Procedure: Musca domestica Test (MUSCDO Surface Treatment & Contact Assay) Solvent: Aceton+2000 ppm rapeseed oil methyl ester (RME)
In order to produce a sufficient, active ingredient containing solution it is necessary to solve the test compound in the solvent-mix (acetone at 2 mg/ml/RME 2000 ppm). This solution is pipetted onto a glazed tile and after evaporation of the acetone, adult flies of the species Musca domestica strain WHO—N are placed onto the dried surface. The exposure time is 30 minutes. Mortality in percent (%) is determined 24 hours after contact of the insects to the treated surface. 100% mortality means that all tested insects are dead, whereas 0% means that no insect died.

Ctenocephalides felis [6] = assay: Ctenocephalides felis in-vitro contact test, adult cat flea (CTECFE Cont); settings: application rate 5 μg/cm^2 (=500 g/ha), adult cat fleas, after 48 hours, read-out: activity (efficacy: 100% means all fleas are dead or moribund)
Procedure: Ctenocephalides felis—In-Vitro Contact Tests Adult Cat Flea (CTECFE Cont)
9 mg compound is solved in 1 mL acetone and diluted with acetone to the desired concentration. 250 μL of the test solution is filled in 25 mL glass test tubes and homogeneously distributed on the inner walls by rotation and tilting on a shaking device (2 h at 30 rpm). With a compound concentration of 900 ppm, an inner surface of 44.7 cm^2 and a homogeneous distribution, a dose of 5 μg/cm^2 is achieved.
After the solvent has evaporated, each test tube is filled with 5-10 adult cat fleas (Ctenocephalides felis), closed with a perforated lid and incubated in a lying position at room temperature and relative humidity. After 48 hours efficacy is determined. The fleas are patted on the ground of the tubes and are incubated on a heating plate at 45-50° C. for at most 5 minutes. Immotile or uncoordinated moving fleas, which are not able to escape the heat by climbing upwards, are marked as dead or moribund.
An efficacy of 100% means all fleas are dead or moribund; 0% means no fleas are dead or moribund.

Rhipicephalus sanguineus = Rhipicephalus sanguineus in-vitro contact test, adult brown dog ticks (RHIPSA Cont); settings: 48 h, after 48 hours, read-out: activity (efficacy: 100% means all ticks are dead or moribund); for pest or weed control at 1 µg/cm2, 100 g/ha: application rate 1 μg/cm^2 (=100 g/ha); for pest or weed control at 5 µg/cm2, 500 g/ha: application rate 5 μg/cm^2 (=500 g/ha)
Method in brief: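 Mortality of adult R. sanguineus was judged 48 h after contact with acetone-applied residues on glass tube walls. Ticks that stayed immotile or moved without coordination when heated to 45–50 °C (max 5 min) counted as dead or moribund.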

| SMILES | pest or weed control at 0.004 mg (Rhipicephalus microplus [1]) [%] | pest or weed control at 0.02 mg (Rhipicephalus microplus [1]) [%] | pest or weed control at 5 µg/cm2 (Rhipicephalus microplus [2]) [%] | mortality at 100 ppm (Ctenocephalides felis [3]) [%] | pest or weed control at 32 µg/disc, 100 g/ha (Diabrotica balteata) [%] | pest or weed control at 160 µg/disc, 500 g/ha (Diabrotica balteata) [%] | mortality at 4 ppm (Myzus persicae) [%] | mortality at 100 g/ha (Spodoptera frugiperda) [%] | mortality at 4 mg/m2 [4] [%] | mortality at 20 mg/m2 [4] [%] | mortality at 20 mg/m2 [5] [%] | pest or weed control at 5 µg/cm2 (Ctenocephalides felis [6]) [%] | mortality at 500 g/ha (Spodoptera frugiperda) [%] | mortality at 4 mg/m2 [5] [%] | pest or weed control at 1 µg/cm2, 100 g/ha (Rhipicephalus sanguineus) [%] | pest or weed control at 5 µg/cm2, 500 g/ha (Rhipicephalus sanguineus) [%] | mortality at 0.8 ppm (Myzus persicae) [%] |
| --- | --- | --- | --- | --- | --- | --- | --- | --- | --- | --- | --- | --- | --- | --- | --- | --- | --- |
| CC(NC(=O)c1cc(Cl)cc(C(F)(F)F)c1)c1nc(C(F)F)nn1-c1ccc(C#N)cn1 (racemic) [I-9] | 100 | 100 | 100 | 100 | 100 | 100 | 100 | 100 | 80 to 100 | 80 to 100 | 80 to 100 | – | – | – | – | – | – |
| CCc1nc([C@H](C)NC(=O)c2cc(Cl)cc(C(F)(F)F)c2)n(-c2ccc(C#N)cn2)n1 [I-3] | 100 | 100 | 100 | – | 100 | 100 | 90 | 100 | 80 to 100 | 80 to 100 | 80 to 100 | 100 | 100 | 80 to 100 | – | – | – |
| CC(C)c1nc([C@H](C)NC(=O)c2cc(Br)cc(C(F)(F)F)n2)n(-c2ccc(C#N)cn2)n1 [I-20] | – | – | – | – | – | – | – | – | – | – | – | 80 | – | – | – | – | – |
| CC(C)c1nc([C@H](C)NC(=O)c2cc(Br)cc(Br)c2)n(-c2ccc(C#N)cn2)n1 [I-24] | 100 | 100 | 100 | 100 | 100 | – | – | 100 | – | – | – | 80 | – | – | 100 | 100 | – |
| C[C@H](NC(=O)c1cc(C#N)cc(C(F)(F)F)c1)c1nc(C2CC2)nn1-c1ccc(C#N)cn1 [I-44] | 100 | – | 100 | 100 | 100 | – | – | 100 | 80 to 100 | 80 to 100 | 80 to 100 | – | – | 80 to 100 | – | – | 90 |
| COc1nc([C@H](C)NC(=O)c2cc(Br)cc(Br)c2)n(-c2ccc(C#N)cn2)n1 [I-61] | 100 | – | 100 | – | 100 | – | 100 | 100 | – | – | – | 80 | – | – | 100 | 100 | – |
| CC(C)N(C(=O)c1ccc(-n2ncnc2[C@H](C)NC(=O)c2cc(Cl)cc(C(F)(F)F)c2)nc1)C1CC1 [II-29] | 100 | 100 | 100 | 100 | 100 | 100 | – | 83 | 80 to 100 | 80 to 100 | – | 100 | 100 | – | 100 | 100 | – |
| C[C@H](NC(=O)c1cc(Cl)cc(OC(F)(F)F)c1)c1ncnn1-c1cc(C#N)ccn1 [II-33] | 100 | 100 | 100 | – | 100 | 100 | 100 | 100 | 80 to 100 | 80 to 100 | 80 to 100 | 90 | 100 | 80 to 100 | 80 | 80 | – |
| CCN(CC)C(=O)c1ccnc(-n2ncnc2[C@H](C)NC(=O)c2cc(C(F)(F)F)cc(C(F)(F)F)c2)c1 [II-85] | – | – | 100 | – | 100 | – | 100 | 83 | – | – | – | 100 | – | – | 100 | 100 | – |
| C[C@H](NC(=O)c1cc(C(F)(F)F)cc(C(F)(F)F)c1)c1ncnn1-c1cc(C(=O)N(C)C)ccn1 [II-86] | – | – | 100 | 100 | 100 | – | 100 | 100 | – | – | – | 100 | – | – | 100 | 80 | 100 |
| C[C@H](NC(=O)c1cc(C(F)(F)F)cc(C(F)(F)F)c1)c1ncnn1-c1cc(C(=O)N(C)CC(F)(F)F)ccn1 [II-88] | – | – | 100 | – | 100 | – | 100 | 100 | – | – | – | 100 | – | – | – | – | – |
| CC(C)CNC(=O)c1ccnc(-n2ncnc2[C@H](C)NC(=O)c2cc(C(F)(F)F)cc(C(F)(F)F)c2)c1 [II-90] | – | – | 100 | – | – | – | 100 | 83 | – | – | – | 80 | – | – | – | – | – |
| C[C@H](NC(=O)c1cc(Cl)cc(C(F)(F)F)c1)c1ncnn1-c1cc(-n2ccnc2)ccn1 [II-102] | 100 | – | 90 | 100 | – | – | – | – | – | – | – | 80 | – | – | – | – | – |
| C[C@H](NC(=O)c1cc(Br)cc(I)c1)c1ncnn1-c1ccc(C#N)cn1 [II-112] | 100 | – | 100 | 100 | 100 | – | – | 100 | – | – | – | 80 | – | – | 100 | 100 | – |
